Structures are written as SMILES. Calls of active or inactive are those of the source. No cut-off for these calls is given here.

Here are results for 8 compounds from ChEMBL document CHEMBL2311454, “Discovery and evaluation of novel inhibitors of mycobacterium protein tyrosine phosphatase B from the 6-Hydroxy-benzofuran-5-carboxylic acid scaffold” (J Med Chem, 2013).

The target in assay [1] is T1, Tyrosine-protein phosphatase non-receptor type 1 (Homo sapiens, UniProt P18031).
T1 sequence (P18031 whole entry): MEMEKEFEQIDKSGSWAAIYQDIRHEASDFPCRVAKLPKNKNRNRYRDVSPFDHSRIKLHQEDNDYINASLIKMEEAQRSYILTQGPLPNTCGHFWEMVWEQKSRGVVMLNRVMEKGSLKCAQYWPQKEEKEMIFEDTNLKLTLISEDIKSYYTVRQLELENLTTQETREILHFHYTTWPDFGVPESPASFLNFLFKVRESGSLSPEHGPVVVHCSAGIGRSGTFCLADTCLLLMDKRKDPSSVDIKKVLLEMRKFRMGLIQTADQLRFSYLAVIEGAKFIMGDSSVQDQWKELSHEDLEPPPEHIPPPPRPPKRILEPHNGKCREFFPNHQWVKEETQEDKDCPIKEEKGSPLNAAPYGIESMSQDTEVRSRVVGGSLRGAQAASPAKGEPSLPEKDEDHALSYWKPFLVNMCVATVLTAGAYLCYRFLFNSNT
As to the kind of experiment: Inhibition of PTP1B (unknown origin) expressed in Escherichia coli using pNPP substrate after 5 mins by spectrophotometric analysis.

In assay [2] the target is T2, Receptor-type tyrosine-protein phosphatase C (Homo sapiens, UniProt P08575).
T2 sequence (P08575 whole entry): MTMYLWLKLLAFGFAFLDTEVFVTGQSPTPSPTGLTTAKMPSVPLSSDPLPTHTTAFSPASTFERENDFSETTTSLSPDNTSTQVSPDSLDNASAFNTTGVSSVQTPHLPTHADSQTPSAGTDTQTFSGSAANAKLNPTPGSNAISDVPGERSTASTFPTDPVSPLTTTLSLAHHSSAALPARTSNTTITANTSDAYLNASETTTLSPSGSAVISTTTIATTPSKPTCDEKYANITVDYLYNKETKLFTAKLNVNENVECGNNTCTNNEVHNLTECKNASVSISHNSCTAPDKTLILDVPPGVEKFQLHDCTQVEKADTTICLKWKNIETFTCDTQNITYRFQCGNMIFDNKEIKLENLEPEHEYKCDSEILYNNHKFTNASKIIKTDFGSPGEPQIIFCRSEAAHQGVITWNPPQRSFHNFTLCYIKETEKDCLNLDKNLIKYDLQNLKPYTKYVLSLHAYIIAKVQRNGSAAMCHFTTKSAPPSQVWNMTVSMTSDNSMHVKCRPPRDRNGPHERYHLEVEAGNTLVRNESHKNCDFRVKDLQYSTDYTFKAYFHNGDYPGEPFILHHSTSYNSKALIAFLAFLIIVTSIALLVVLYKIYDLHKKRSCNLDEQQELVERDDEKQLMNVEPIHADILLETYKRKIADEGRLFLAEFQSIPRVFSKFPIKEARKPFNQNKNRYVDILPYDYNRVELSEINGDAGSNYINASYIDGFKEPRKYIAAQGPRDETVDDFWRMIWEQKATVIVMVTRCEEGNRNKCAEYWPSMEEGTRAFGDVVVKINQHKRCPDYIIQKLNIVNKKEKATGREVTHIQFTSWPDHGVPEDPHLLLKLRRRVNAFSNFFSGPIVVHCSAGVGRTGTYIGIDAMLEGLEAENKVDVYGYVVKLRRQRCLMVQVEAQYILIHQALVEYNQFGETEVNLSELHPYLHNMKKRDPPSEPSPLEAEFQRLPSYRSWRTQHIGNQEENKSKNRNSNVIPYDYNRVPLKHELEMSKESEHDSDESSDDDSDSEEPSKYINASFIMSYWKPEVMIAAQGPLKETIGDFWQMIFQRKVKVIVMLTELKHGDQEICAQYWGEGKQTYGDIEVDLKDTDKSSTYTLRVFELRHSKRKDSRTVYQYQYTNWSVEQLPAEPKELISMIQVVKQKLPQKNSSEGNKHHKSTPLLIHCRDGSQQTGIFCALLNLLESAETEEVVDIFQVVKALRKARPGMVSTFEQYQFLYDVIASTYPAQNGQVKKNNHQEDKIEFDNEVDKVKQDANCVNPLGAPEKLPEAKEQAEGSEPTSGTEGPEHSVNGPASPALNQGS
As to the kind of experiment: Inhibition of CD45 (unknown origin) expressed in Escherichia coli using pNPP substrate after 5 mins by spectrophotometric analysis.

In assay [3] the target is T3, Tyrosine-protein phosphatase non-receptor type 2 (Homo sapiens, UniProt P17706).
T3 sequence (P17706 whole entry): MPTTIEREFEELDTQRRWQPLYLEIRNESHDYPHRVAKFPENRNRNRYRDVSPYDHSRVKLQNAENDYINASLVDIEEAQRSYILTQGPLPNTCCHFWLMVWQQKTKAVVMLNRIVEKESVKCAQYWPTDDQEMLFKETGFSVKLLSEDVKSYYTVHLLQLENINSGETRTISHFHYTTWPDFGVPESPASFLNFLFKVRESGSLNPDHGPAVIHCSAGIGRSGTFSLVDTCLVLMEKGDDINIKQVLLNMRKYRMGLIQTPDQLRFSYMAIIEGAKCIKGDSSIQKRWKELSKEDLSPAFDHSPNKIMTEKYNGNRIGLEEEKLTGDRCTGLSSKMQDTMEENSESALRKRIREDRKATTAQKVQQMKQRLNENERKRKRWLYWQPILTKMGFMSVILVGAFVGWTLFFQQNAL
As to the kind of experiment: Inhibition of TCPTP (unknown origin) expressed in Escherichia coli using pNPP substrate after 5 mins by spectrophotometric analysis.

Assay [4] addresses Tyrosine-protein phosphatase non-receptor type 6 (Homo sapiens, UniProt P29350). As to the kind of experiment: Inhibition of SHP1 (unknown origin) expressed in Escherichia coli using pNPP substrate after 5 mins by spectrophotometric analysis.
Assay [5] in a line: Inhibition of Mycobacterium tuberculosis PTPB expressed in Escherichia coli using pNPP substrate after 5 mins by spectrophotometric analysis.
The test system of assay [6] is RAW264.7. As to the kind of experiment: Inhibition of Mycobacterium tuberculosis PTPB expressed in mouse RAW264.7 macrophages assessed as induction of apoptosis after 1 hr by annexin V-FITC /propidium iodide staining-based flow cytometric analysis. The class given is cell-based.
Assay [7] has as its system RAW264.7. As to the kind of experiment: Inhibition of Mycobacterium tuberculosis PTPB expressed in mouse RAW264.7 macrophages assessed as decrease in Akt activity after 1 hr by Western blotting analysis. The class given is cell-based.
The test system of assay [8] is RAW264.7. As to the kind of experiment: Inhibition of Mycobacterium tuberculosis PTPB expressed in mouse RAW264.7 macrophages assessed as increase in caspase activity after 1 hr by spectrophotometric analysis. Type of assay: cell-based.
The subject of assay [9] is Mycobacterium tuberculosis. As to the kind of experiment: Inhibition of Mycobacterium tuberculosis PTPB expressed in mouse RAW264.7 macrophages assessed as restoration of IFNgamma-induced ERK1/2 activation after 1 hr by Western blotting analysis.
Assay [10] relates to Mycobacterium tuberculosis. As to the kind of experiment: Inhibition of Mycobacterium tuberculosis PTPB expressed in mouse RAW264.7 macrophages assessed as restoration of IFNgamma-induced IL-6 production after 1 hr by ELISA.
The subject of assay [11] is Mycobacterium tuberculosis. As to the kind of experiment: Inhibition of Mycobacterium tuberculosis PTPB expressed in mouse RAW264.7 macrophages assessed as restoration of IFNgamma-induced p38 activation after 1 hr by Western blotting analysis.

Tyrosine-protein phosphatase non-receptor type 6, sequence (P29350 whole entry): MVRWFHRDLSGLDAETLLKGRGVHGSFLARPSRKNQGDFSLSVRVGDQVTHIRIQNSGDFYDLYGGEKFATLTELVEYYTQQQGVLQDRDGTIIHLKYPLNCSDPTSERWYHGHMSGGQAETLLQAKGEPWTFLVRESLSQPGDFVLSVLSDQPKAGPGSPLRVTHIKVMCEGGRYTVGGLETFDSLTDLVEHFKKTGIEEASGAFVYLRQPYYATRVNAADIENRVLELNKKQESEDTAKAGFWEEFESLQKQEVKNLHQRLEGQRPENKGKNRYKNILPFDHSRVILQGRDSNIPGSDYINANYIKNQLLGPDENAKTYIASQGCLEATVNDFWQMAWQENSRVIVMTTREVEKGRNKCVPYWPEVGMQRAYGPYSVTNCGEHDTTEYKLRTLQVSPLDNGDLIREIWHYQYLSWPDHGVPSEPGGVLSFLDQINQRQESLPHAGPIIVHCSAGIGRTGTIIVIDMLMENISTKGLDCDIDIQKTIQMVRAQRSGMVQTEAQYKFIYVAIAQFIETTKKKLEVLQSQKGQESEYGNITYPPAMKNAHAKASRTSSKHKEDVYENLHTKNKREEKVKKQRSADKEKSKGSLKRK

In the case of `C[C@]12CCC(=O)C=C1CC[C@@H]1[C@@H]2CC[C@@]2(C)[C@H]1CC[C@]2(O)C#Cc1c(-c2ccccc2)oc2cc(O)c(C(=O)O)cc12`, the 50% inhibitory concentration (IC50) (in general, the concentration at which inhibition is half-maximal) in [1] is above 50 µM; in assay [2], above 100 µM; in assay [3], above 50 µM; in [4], above 100 µM; in [5] it was 5.09 µM.
With `O=C(O)c1cc2c(/C=C\c3cc(F)cc(F)c3)c(-c3ccccc3)oc2cc1O`, the IC50 in assay [1] was 8 µM; in assay [2], 13.1 µM; in assay [3], 9.5 µM; in assay [5] it was 1.2 µM.
On to `O=C(O)c1cc2c(CCc3cccc(C(F)(F)F)c3)c(-c3ccccc3)oc2cc1O`, for which the IC50 came to 7.4 µM in assay [1], 10.1 µM in [2] and 10 µM in assay [3].
Take `O=C(O)c1cc2c(CCc3ccc(OC(F)(F)F)cc3)c(-c3ccccc3)oc2cc1O`: the 50% inhibitory concentration (IC50) in [1] stood at 8.4 µM; in assay [2] it was 18.9 µM; in assay [3] it was 8.9 µM; in assay [4], 7.1 µM; in assay [5], 3.4 µM. Further, the inhibition entry (with RAW264.7 [6]; with RAW264.7 [7]; in the assay on RAW264.7 [8]; in assay [9]; in assay [10]; in assay [11]) was “inactive” in each case.
Consider `O=C(O)c1cc2c(CCc3ccc(Oc4ccccc4)cc3)c(-c3ccccc3)oc2cc1O`, for which the concentration for half-maximal inhibition (IC50) is 8 µM in [1], 14.2 µM in assay [2], 11.8 µM in [3] and 3.7 µM in assay [4].
For `C#Cc1c(-c2ccccc2)oc2cc(O)c(C(=O)O)cc12`, in that order: above 50 µM, 80 µM, above 50 µM and above 50 µM.
For `O=C(O)c1cc2c(C#CCO)c(-c3ccccc3)oc2cc1O`, the IC50 in assay [1] was above 100 µM; in [2] it was above 100 µM; in assay [3], above 100 µM; in assay [4], above 100 µM; in assay [5], 22 µM.
As to `O=C(O)c1cc2c(CCc3cccc(F)c3)c(-c3ccccc3)oc2cc1O`, the IC50 came out at 60 µM in [1], 120 µM in [2], 33 µM in assay [3] and 11.5 µM in assay [4].
